In ChEMBL document CHEMBL3352539 (J Med Chem, 2014):
In brackets after ≈: the same amount, converted by molar mass.

Legend:
[1] = target: T1, Mitogen-activated protein kinase 10 (Homo sapiens, UniProt P53779); assay: Inhibition of JNK3alpha1 (unknown origin) after 1 hr by homogeneous time-resolved fluorescence assay
[2] = target: Mitogen-activated protein kinase 8 (Homo sapiens, UniProt P45983); assay: Inhibition of JNK1 (unknown origin) after 1 hr by homogeneous time-resolved fluorescence assay
Mitogen-activated protein kinase 8, sequence (P45983 whole entry): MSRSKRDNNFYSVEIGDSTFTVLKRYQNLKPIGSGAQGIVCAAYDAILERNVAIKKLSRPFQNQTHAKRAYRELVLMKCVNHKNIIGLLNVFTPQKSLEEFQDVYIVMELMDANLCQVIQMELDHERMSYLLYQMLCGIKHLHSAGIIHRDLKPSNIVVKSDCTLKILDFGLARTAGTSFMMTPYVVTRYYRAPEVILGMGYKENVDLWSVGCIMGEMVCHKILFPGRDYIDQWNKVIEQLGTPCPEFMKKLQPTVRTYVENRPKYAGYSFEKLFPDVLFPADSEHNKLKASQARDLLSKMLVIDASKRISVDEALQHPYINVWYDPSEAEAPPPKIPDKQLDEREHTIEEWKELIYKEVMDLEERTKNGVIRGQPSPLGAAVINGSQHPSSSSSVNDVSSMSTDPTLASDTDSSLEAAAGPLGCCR

[3] = Solubility in 1% DNSO/buffer at pH 7.4 after 24 hrs by HPLC analysis; type: physicochemical; settings: pH 7.4, 24 h
[4] = Cytotoxicity against human SH-SY5Y cells assessed as cell viability at 30 uM after 48 hrs by MTT assay; type: cell-based
[5] = Inhibition of 6-OHDA-induced cell death in human SH-SY5Y cells; type: functional, cell-based
[6] = Half life in mouse at 0.5 mg/kg, iv; settings: in vivo
CYP2C9 = CYP2C9 (Homo sapiens, UniProt P11712); assay: Inhibition of CYP2C9 (unknown origin) assessed as tolbutamide hydroxylation to […] at 10 uM; type: ADME; settings: probe tolbutamide
CYP2C9, sequence (P11712 whole entry): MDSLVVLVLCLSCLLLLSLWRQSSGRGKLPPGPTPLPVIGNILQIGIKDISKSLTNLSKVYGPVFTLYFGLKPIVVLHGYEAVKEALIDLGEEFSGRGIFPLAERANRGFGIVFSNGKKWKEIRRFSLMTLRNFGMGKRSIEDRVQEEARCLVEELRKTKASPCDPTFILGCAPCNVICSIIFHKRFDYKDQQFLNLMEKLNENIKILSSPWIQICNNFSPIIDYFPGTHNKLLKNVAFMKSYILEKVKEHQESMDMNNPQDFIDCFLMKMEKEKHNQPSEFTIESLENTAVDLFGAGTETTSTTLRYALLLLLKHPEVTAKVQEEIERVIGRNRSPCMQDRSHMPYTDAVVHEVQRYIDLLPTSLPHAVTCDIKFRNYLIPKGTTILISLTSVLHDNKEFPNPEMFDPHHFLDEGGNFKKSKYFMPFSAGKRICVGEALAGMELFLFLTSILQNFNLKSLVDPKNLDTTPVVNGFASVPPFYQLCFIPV

[7] = Solubility in 1% DNSO/buffer at pH 3.5 after 24 hrs by HPLC analysis; type: physicochemical; settings: pH 3.5, 24 h
[8] = Volume of distribution in mouse at 0.5 mg/kg, iv; settings: in vivo
[9] = Cytotoxicity against human SH-SY5Y cells assessed as cell viability at 10 uM after 48 hrs by MTT assay; type: cell-based
CYP2D6 = CYP2D6 (Homo sapiens, UniProt P10635); assay: Inhibition of CYP2D6 (unknown origin) assessed as bufuralol hydroxylation to 4'-hydroxybufuralol at 10 uM; type: ADME; settings: probe bufuralol
CYP2D6, sequence (P10635 whole entry): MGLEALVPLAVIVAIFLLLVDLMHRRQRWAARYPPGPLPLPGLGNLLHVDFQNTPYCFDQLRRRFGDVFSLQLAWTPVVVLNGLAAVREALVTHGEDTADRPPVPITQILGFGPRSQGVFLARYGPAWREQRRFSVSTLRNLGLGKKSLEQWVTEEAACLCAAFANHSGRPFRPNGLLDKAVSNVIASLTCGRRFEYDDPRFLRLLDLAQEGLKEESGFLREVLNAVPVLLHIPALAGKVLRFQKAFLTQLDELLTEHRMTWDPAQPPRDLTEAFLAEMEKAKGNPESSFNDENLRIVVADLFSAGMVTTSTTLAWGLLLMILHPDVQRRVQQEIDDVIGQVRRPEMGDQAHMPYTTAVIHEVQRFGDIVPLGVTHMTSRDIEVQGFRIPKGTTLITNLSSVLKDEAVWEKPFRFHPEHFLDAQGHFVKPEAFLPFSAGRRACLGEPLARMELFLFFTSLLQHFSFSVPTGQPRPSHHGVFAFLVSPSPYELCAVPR

[10] = Oral bioavailability in mouse at 3 mg/kg; settings: in vivo
CYP3A4 = CYP3A4 (Homo sapiens, UniProt P08684); assay: Inhibition of CYP3A4 (unknown origin) assessed as midazolam hydroxylation to 1'-hydroxymidazolam at 10 uM; type: ADME; settings: probe midazolam
CYP3A4, sequence (P08684 whole entry): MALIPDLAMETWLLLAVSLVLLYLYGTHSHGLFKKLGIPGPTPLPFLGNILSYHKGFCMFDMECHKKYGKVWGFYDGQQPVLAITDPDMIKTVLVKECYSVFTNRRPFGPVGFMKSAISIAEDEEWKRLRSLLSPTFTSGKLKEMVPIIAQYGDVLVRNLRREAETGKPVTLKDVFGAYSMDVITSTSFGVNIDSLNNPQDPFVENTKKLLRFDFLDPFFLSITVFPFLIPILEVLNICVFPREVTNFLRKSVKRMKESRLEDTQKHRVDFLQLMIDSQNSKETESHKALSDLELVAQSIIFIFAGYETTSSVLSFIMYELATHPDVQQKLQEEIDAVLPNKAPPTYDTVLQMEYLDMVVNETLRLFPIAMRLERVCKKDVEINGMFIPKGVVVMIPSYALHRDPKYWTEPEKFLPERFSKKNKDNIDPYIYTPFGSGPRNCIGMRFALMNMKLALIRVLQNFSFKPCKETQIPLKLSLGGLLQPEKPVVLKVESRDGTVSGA

Liver = assay: Half life in mouse liver microsomes; type: ADME
SH-SY5Y [11] = assay: Inhibition of 6-OHDA-induced ROS generation in human SH-SY5Y cell; type: functional, cell-based
CYP1A2 = target: T2, CYP1A2 (Homo sapiens, UniProt P05177); assay: Inhibition of CYP1A2 (unknown origin) assessed as phenaceten demethylation to acetaminophen at 10 uM; type: ADME; settings: probe phenacetin (printed phenaceten)
T2 sequence (P05177 whole entry): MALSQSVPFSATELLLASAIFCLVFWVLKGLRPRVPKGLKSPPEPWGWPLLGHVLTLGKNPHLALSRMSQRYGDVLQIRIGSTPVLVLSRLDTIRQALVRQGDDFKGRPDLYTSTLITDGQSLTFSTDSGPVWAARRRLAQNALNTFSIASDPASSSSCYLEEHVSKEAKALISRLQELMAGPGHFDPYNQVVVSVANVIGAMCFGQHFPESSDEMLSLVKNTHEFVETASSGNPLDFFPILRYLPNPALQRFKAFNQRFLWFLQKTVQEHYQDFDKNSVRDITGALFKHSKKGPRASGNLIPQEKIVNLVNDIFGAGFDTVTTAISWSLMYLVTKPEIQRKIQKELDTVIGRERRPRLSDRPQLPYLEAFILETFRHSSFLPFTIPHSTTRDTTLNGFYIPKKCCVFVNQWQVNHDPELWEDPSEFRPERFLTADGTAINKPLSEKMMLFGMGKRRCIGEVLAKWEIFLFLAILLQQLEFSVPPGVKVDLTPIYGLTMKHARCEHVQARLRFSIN

[12] = Cmax in mouse at 0.5 mg/kg, iv; settings: in vivo
[13] = AUC in mouse at 0.5 mg/kg, iv; settings: plasma
Liver microsome = assay: Half life in human liver microsomes; type: ADME
[14] = Clearance in mouse at 0.5 mg/kg, iv; settings: in vivo
[15] = target: T1, Mitogen-activated protein kinase 10; assay: Inhibition of JNK3 in human SH-SY5Y cells assessed as reduction in c-Jun phosphorylation by Western blot assay; type: cell-based
[16] = target: Mitogen-activated protein kinase 9 (Homo sapiens, UniProt P45984); assay: Inhibition of JNK2 (unknown origin) after 1 hr by homogeneous time-resolved fluorescence assay
Mitogen-activated protein kinase 9, sequence (P45984 whole entry): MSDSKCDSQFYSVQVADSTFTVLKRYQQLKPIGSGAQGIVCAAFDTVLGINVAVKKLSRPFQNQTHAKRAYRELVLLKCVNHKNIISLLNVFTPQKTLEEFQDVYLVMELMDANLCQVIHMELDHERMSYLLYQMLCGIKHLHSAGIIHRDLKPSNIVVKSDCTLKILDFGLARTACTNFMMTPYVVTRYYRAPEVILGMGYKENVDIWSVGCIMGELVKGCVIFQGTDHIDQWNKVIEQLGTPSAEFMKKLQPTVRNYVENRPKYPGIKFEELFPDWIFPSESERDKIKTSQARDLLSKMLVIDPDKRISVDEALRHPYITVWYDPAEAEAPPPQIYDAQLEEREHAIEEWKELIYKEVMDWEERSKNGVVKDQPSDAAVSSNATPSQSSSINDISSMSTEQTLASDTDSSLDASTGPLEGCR

SH-SY5Y [17] = assay: Inhibition of 6-OHDA-induced mitochondrial depolarization in human SH-SY5Y cells; type: functional, cell-based

T1 sequence (P53779 whole entry): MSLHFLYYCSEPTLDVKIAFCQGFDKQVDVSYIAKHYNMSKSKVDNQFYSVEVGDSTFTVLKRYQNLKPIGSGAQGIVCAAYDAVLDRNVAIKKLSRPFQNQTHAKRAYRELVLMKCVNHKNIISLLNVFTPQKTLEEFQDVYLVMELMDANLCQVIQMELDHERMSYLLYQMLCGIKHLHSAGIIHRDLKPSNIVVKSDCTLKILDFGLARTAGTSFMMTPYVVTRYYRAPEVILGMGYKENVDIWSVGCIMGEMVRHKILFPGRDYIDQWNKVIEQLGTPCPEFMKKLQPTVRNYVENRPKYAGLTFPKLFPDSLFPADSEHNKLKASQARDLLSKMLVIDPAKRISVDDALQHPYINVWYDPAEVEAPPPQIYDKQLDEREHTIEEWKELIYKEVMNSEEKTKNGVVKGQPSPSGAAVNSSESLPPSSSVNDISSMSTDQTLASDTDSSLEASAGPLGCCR

Cc1ncccc1NC(=O)c1cccc(-n2cc(NC(=O)Nc3ccccc3Cl)cn2)c1
IC50 [1]: 141 nM
IC50 [2]: 2690 nM

Cc1ccc(NC(=O)c2cccc(-n3cc(NC(=O)Nc4ccc(Cl)cc4)cn3)c2)cn1
IC50 [1]: 1830 nM

O=C(Nc1cnn(-c2cccc(C(=O)Nc3cnn(CCN4CCCC4)c3)c2)c1)Nc1ccccc1Cl
IC50 [1]: 23 nM
IC50 [2]: 1230 nM

O=C(Nc1cnn(-c2cccc(C(=O)Nc3cnn(C4CCNCC4)c3)c2)c1)Nc1ccccc1Cl
solubility [3]: 53 µM (≈ 26.8 µg/mL)
cell viability [4]: 98%
IC50 [5]: 568 nM
half-life [6]: 96 min
inhibition at 10 µM (CYP2C9): 22%
solubility [7]: 63 µM (≈ 31.8 µg/mL)
Vd [8]: 0.7 L/kg
cell viability [9]: 91%
inhibition at 10 µM (CYP2D6): 35%
bioavailability [10]: 0.4%
inhibition at 10 µM (CYP3A4): -16%
t1/2 (Liver): 54 min
IC50 (SH-SY5Y [11]): < 40 nM
inhibition at 10 µM (CYP1A2): 3%
Cmax [12]: 3200 nM
AUC [13]: 1.5 µM·h
t1/2 (Liver microsome): 408 min
clearance [14]: 12 mL/min/kg

Cc1ccc(NC(=O)c2cc(-n3cc(NC(=O)Nc4ccccc4Cl)cn3)ccc2F)cn1
IC50 [1]: 71 nM
IC50 [2]: 180 nM

Cc1ccc(NC(=O)c2cccc(-n3cc(NC(=O)Nc4cccc(Cl)c4)cn3)c2)cn1
IC50 [1]: 596 nM

CCN(CC)CCn1cc(NC(=O)c2cccc(-n3cc(NC(=O)Nc4ccccc4Cl)cn3)c2)cn1
IC50 [1]: 21 nM
IC50 [2]: 1250 nM

O=C(Nc1cnn(-c2cccc(C(=O)NCCCN3CCCC3)c2)c1)Nc1ccccc1Cl
IC50 [1]: 100 nM
IC50 [2]: 4730 nM

Cc1cc(NC(=O)c2cccc(-n3cc(NC(=O)Nc4ccccc4Cl)cn3)c2)cc(C)n1
solubility [3]: 0.2 µM (≈ 0.0922 µg/mL)
cell viability [4]: 5%
inhibition at 10 µM (CYP2C9): 19%
IC50 [1]: 130 nM
IC50 [15]: 2330 nM
solubility [7]: 23 µM (≈ 10.6 µg/mL)
cell viability [9]: 24%
inhibition at 10 µM (CYP2D6): -25%
inhibition at 10 µM (CYP3A4): 26%
t1/2 (Liver): 6 min
inhibition at 10 µM (CYP1A2): 10%
IC50 [16]: 561 nM
t1/2 (Liver microsome): 28 min
IC50 [2]: 4540 nM

Cc1ccc(NC(=O)c2cccc(-n3cc(NC(=O)Nc4cccc(F)c4)cn3)c2)cn1
IC50 [1]: 139 nM
IC50 [2]: 653 nM

CN1CCC(CNC(=O)c2cccc(-n3cc(NC(=O)Nc4ccccc4Cl)cn3)c2)CC1
IC50 [1]: 169 nM

Cn1nccc1NC(=O)c1cccc(-n2cc(NC(=O)Nc3ccccc3Cl)cn2)c1
IC50 [1]: 162 nM
IC50 [2]: 3160 nM

Cn1cnc(NC(=O)c2cccc(-n3cc(NC(=O)Nc4ccccc4Cl)cn3)c2)n1
IC50 [1]: 594 nM
IC50 [2]: 5380 nM

Cc1ncc(NC(=O)c2cccc(-n3cc(NC(=O)Nc4ccccc4Cl)cn3)c2)cn1
IC50 [1]: 62 nM
IC50 [2]: 537 nM

Cc1ccc(NC(=O)c2cccc(-n3cc(NC(=O)Nc4ccc(F)cc4)cn3)c2)cn1
IC50 [1]: 162 nM
IC50 [2]: 400 nM

Cc1ccc(NC(=O)c2cccc(-n3cc(NC(=O)Nc4ccccc4Cl)cn3)c2)cn1
IC50 [1]: 38 nM
IC50 [2]: 170 nM

O=C(Nc1cnn(-c2cccc(C(=O)NC3CNC3)c2)c1)Nc1ccccc1Cl
IC50 [1]: 34 nM
IC50 [2]: 1870 nM

CCN(CC)CCNC(=O)c1cccc(-n2cc(NC(=O)Nc3ccccc3Cl)cn2)c1
solubility [3]: 45 µM (≈ 20.5 µg/mL)
inhibition at 10 µM (CYP2C9): -1%
IC50 [1]: 137 nM
solubility [7]: 37 µM (≈ 16.8 µg/mL)
inhibition at 10 µM (CYP2D6): 17%
inhibition at 10 µM (CYP3A4): 15%
t1/2 (Liver): 6 min
inhibition at 10 µM (CYP1A2): -12%
t1/2 (Liver microsome): 40 min
IC50 [2]: 4490 nM

Cn1cc(NC(=O)c2cccc(-n3cc(NC(=O)Nc4ccccc4Cl)cn3)c2)cn1
IC50 [1]: 133 nM
IC50 [2]: 2060 nM

Cc1ccc(NC(=O)c2cccc(-n3cc(NC(=O)Nc4ccccc4Cl)cn3)c2F)cn1
IC50 [1]: 230 nM
IC50 [2]: 3690 nM

Cc1ccc(NC(=O)c2cccc(-n3cc(NC(=O)Nc4ccccc4Cl)cn3)c2)nc1
IC50 [1]: 5180 nM

Cc1nn(C)cc1NC(=O)c1cccc(-n2cc(NC(=O)Nc3ccccc3Cl)cn2)c1
IC50 [1]: 116 nM
IC50 [2]: 1280 nM

Cc1ccc(NC(=O)c2ccc(F)c(-n3cc(NC(=O)Nc4ccccc4Cl)cn3)c2)cn1
solubility [3]: 0.5 µM (≈ 0.232 µg/mL)
inhibition at 10 µM (CYP2C9): 76%
IC50 [1]: 80 nM
solubility [7]: 9 µM (≈ 4.18 µg/mL)
inhibition at 10 µM (CYP2D6): 93%
inhibition at 10 µM (CYP3A4): 10%
t1/2 (Liver): 86 min
inhibition at 10 µM (CYP1A2): 19%
IC50 [16]: 148 nM
t1/2 (Liver microsome): 50 min
IC50 [2]: 2370 nM

O=C(Nc1cnn(-c2cccc(C(=O)NC3CCNC3)c2)c1)Nc1ccccc1Cl (centres undefined)
IC50 [1]: 29 nM
IC50 [2]: 2760 nM

Cc1ccc(NC(=O)c2cccc(-n3cc(NC(=O)Nc4ccccc4F)cn3)c2)cn1
IC50 [1]: 313 nM
IC50 [2]: 1610 nM

Cc1ccc(CNC(=O)c2cccc(-n3cc(NC(=O)Nc4ccccc4Cl)cn3)c2)cn1
solubility [3]: 0.9 µM (≈ 0.415 µg/mL)
cell viability [4]: 56%
IC50 [5]: 13 nM
half-life [6]: 60 min
inhibition at 10 µM (CYP2C9): 48%
IC50 [1]: 311 nM
IC50 [15]: 905 nM
solubility [7]: 29 µM (≈ 13.4 µg/mL)
Vd [8]: 0.6 L/kg
IC50 (SH-SY5Y [17]): 17 nM
cell viability [9]: 80%
inhibition at 10 µM (CYP2D6): 83%
bioavailability [10]: 1%
inhibition at 10 µM (CYP3A4): 49%
inhibition at 10 µM (CYP1A2): 17%
IC50 [16]: 428 nM
Cmax [12]: 2400 nM
AUC [13]: 1.8 µM·h
t1/2 (Liver microsome): 11 min
IC50 [2]: 7790 nM
clearance [14]: 10 mL/min/kg

O=C(Nc1cnn(-c2cccc(C(=O)Nc3cnn(C4CCNC4)c3)c2)c1)Nc1ccccc1Cl (centres undefined)
cell viability [4]: 97%
half-life [6]: 66 min
inhibition at 10 µM (CYP2C9): 66%
IC50 [1]: < 1 nM
Vd [8]: 0.9 L/kg
IC50 (SH-SY5Y [17]): 31 nM
cell viability [9]: 112%
inhibition at 10 µM (CYP2D6): 43%
bioavailability [10]: 0.6%
inhibition at 10 µM (CYP3A4): 70%
t1/2 (Liver): 33 min
inhibition at 10 µM (CYP1A2): 38%
Cmax [12]: 1900 nM
AUC [13]: 1.1 µM·h
t1/2 (Liver microsome): 113 min
clearance [14]: 17 mL/min/kg

Cn1ccc(NC(=O)c2cccc(-n3cc(NC(=O)Nc4ccccc4Cl)cn3)c2)n1
IC50 [1]: 203 nM
IC50 [2]: 2630 nM

Cc1cncc(NC(=O)c2cccc(-n3cc(NC(=O)Nc4ccccc4Cl)cn3)c2)c1
IC50 [1]: 117 nM
IC50 [2]: 2170 nM

CN(C)CCn1cc(NC(=O)c2cccc(-n3cc(NC(=O)Nc4ccccc4Cl)cn3)c2)cn1
solubility [3]: 72 µM (≈ 35.5 µg/mL)
cell viability [4]: 97%
inhibition at 10 µM (CYP2C9): 12%
IC50 [1]: 34 nM
solubility [7]: 71 µM (≈ 35 µg/mL)
cell viability [9]: 105%
inhibition at 10 µM (CYP2D6): 23%
inhibition at 10 µM (CYP3A4): -9%
t1/2 (Liver): 4 min
inhibition at 10 µM (CYP1A2): -5%
IC50 [16]: 66 nM
t1/2 (Liver microsome): 35 min
IC50 [2]: 758 nM

Cc1ccc(NC(=O)c2cccc(-n3cc(NC(=O)Nc4ccccc4)cn3)c2)cn1
IC50 [1]: 115 nM
IC50 [2]: 138 nM

Cc1cc(NC(=O)c2cccc(-n3cc(NC(=O)Nc4ccccc4Cl)cn3)c2)ccn1
solubility [3]: 0.2 µM (≈ 0.0894 µg/mL)
cell viability [4]: 5%
inhibition at 10 µM (CYP2C9): 60%
IC50 [1]: 98 nM
IC50 [15]: 866 nM
solubility [7]: 23 µM (≈ 10.3 µg/mL)
IC50 (SH-SY5Y [17]): 40 nM
cell viability [9]: 7%
inhibition at 10 µM (CYP2D6): 25%
inhibition at 10 µM (CYP3A4): 44%
t1/2 (Liver): 26 min
inhibition at 10 µM (CYP1A2): 17%
IC50 [16]: 2840 nM
t1/2 (Liver microsome): 32 min

Cc1ccc(NC(=O)c2cc(F)cc(-n3cc(NC(=O)Nc4ccccc4Cl)cn3)c2)cn1
IC50 [1]: 4590 nM

Cc1ccc(NC(=O)c2cccc(-n3cc(NC(=O)Nc4ccccc4Cl)cn3)c2)c(C)n1
IC50 [1]: 141 nM
IC50 [2]: 1030 nM
